From patent publication US5459156A, “Imidazolyl-substituted phenylacetic acid prolinamides” (Bayer Aktiengesellschaft, priority 1993, dated 1995)

Columns and labels:
Angiotensin II Receptor = biological target: T1, Angiotensin II Receptor (Bos taurus, UniProt P25104); assay: Inhibition of the specific binding of radioactive angiotensin II to the angiotensin II receptor in membrane fractions of the adrenal gland cortex (bovine); conditions: bovine adrenal gland cortex membranes; 3H-angiotensin II (3-5 nM); 60 min, room temperature; Table A
T1 construct: partially purified membrane fractions of bovine AGC using radioactive angiotensin II; from tissue; host or cells: bovine adrenal gland cortex, partially purified membrane fractions
T1 sequence (P25104 1-359): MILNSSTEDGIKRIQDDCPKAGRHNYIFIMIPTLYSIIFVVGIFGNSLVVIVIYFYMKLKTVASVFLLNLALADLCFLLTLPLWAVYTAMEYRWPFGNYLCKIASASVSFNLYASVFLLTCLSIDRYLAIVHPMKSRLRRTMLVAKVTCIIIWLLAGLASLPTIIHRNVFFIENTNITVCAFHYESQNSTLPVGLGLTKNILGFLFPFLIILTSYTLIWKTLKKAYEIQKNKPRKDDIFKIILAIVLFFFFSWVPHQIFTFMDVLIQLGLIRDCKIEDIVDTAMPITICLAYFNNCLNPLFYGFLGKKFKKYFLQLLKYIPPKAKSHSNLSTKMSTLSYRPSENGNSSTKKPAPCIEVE
From the text: Interaction of the Compounds According to the Invention with the Angiotensin II Receptor in Membrane Fractions of the Adrenal Gland Cortex (Bovine)
Bovine adrenal gland cortices (AGC), which have been freshly removed and carefully freed from gland medulla, are comminuted in sucrose solution (0.32M) with the aid of an Ultra-Turrax (Janke & Kunkel, Staufen i.B.) to give a coarse membrane homogenate and partially purified in two centrifugation steps to give membrane fractions. The receptor binding investigations are carried out on partially purified membrane fractions of bovine AGC using radioactive angiotensin II in an assay volume of 0.25 ml, which specifically contains the partially purified membranes (50-80 μg), ^3 H-angiotensin II (3-5 nM), test buffer solution (50 mM Tris, pH 7.2), 5 mM MgCl2 and the substances to be investigated. After an incubation time of 60 min at room temperature, the unbound radioactivity of the samples is separated by means of moistened glass fibre filters (Whatman GF/C) and the bound radioactivity is measured spectrophotometrically in a scintillation cocktail after washing the protein with ice-cold buffer solution (50 mM Tris/HCl, pH 7.4, 5% PEG 6000). […]

smooth muscle cells = assay: Inhibition of the proliferation of smooth muscle cells (3H-thymidine incorporation); type: cell-based, rats; conditions: rat aorta smooth muscle cells; inhibition of thymidine incorporation produced by 10% FCS; Table B
Procedure: Investigation of the Inhibition of the Proliferation of Smooth Muscle Cells by the Compounds According to the Invention
To determine the antiprofilerative action of the compounds, smooth muscle cells are used which are obtained from aortas of rats by the media explant technique [R. Ross, J. Cell. Biol. 50, 172, 1971]. The cells are inoculated in suitable culture dishes, as a rule 96-hole plates, and cultured in 5% CO2 at 37° C. for 2-3 days in medium 199 containing 7.5% FCS and 7.5% NCS, 2 mM L-glutamine and 15 mM HEPES, pH 7.4. The cells are then synchronized by withdrawal of serum for 2-3 days and then stimulated into growth with serum or other factors. Test compounds are simultaneously added. After 16-20 hours, 1 μCi ^3 H-thymidine is added and after a further 4 hours the incorporation of this substance into the TCA-precipitatable DNA of the cells is determined. To determine the IC50 values, the active compound concentration is determined which, on sequential dilution of the active compound, causes semi-maximal inhibition of the thymidine incorporation produced by 10% FCS.

IC50 (Angiotensin II Receptor) [nM]	SMILES	IC50 (smooth muscle cells) [nM]
290	CCCCc1nc(Cl)c(C(=O)O)n1Cc1ccc(C(C(=O)N2CCC[C@H]2C(=O)OCc2ccccc2)C2CCCC2)cc1 (stereo partly shown) [Example 12]	
	CCCCc1nc(Cl)c(CO)n1Cc1ccc(C(C(=O)N2CCC[C@H]2C(=O)OC(C)(C)C)C2CCCC2)cc1 (single isomer, unassigned) [Example 14]	450
580	CCCCc1nc(Cl)c(C(=O)O)n1Cc1ccc(C(C(=O)N2CCC[C@H]2C(N)=O)C2CCCC2)cc1 (stereo partly drawn) [Example 7, 2-[4-(2-Butyl-4-chloro-5-carboxy-imidazol-1-yl-methyl)-phenyl]-2-cyclopentylacetic acid (L-prolinamido) amide]	
	CCCCc1nc(Cl)c(CO)n1Cc1ccc(C(C(=O)N2CCC[C@H]2C(=O)N[C@H](CO)c2ccccc2)C2CCCC2)cc1 (stereo partly drawn) [Example 9, 2-[4-(2-Butyl-4-chloro-5-hydroxymethyl-imidazol-1-yl-methyl)phenyl]-2-cyclopentylacetic acid (L-prolinephenylglycinolamido) amide]	860
